Experiments:
[1] = system: L1210; test: Growth inhibition of L1210 cells in culture in the first 48 hours of exposure at a concentration of 1 x 10e-5 M; format: functional; settings: Mus musculus, L1210, 48 h
[2] = Ionization constant of the compound; format: physicochemical
[3] = system: L1210; test: Growth inhibition of L1210 cells in culture in the first 48 hours of exposure at a concentration of 5 x 10e-5 M; format: functional; settings: Mus musculus, L1210, 48 h
[4] = system: L1210; test: Growth inhibition of L1210 cells in culture in the first 48 hours of exposure at a concentration of 5 x 10e-6 M; format: functional; settings: Mus musculus, L1210, 48 h

Nn1ccn([C@@H]2O[C@H](CO)[C@@H](O)[C@H]2O)c(=O)c1=O
inhibition at 10 µM [1]: 20% | pKa [2]: 8.8 | inhibition at 50 µM [3]: 25% | inhibition at 5 µM [4]: 15%

From ChEMBL document CHEMBL1122335, “Synthesis of an N-aminopyrazinonium analogue of cytidine” (J Med Chem, 1983)
